According to PubChem BioAssay AID720512 (Broad Institute, 2013):
Active and inactive are the calls of the source. No rule for the calls is given here.

target: Toxin B (TcdB) glycohydrolase, Clostridioides difficile 630; assay: TcdB glycohydrolase inhibitors, dose response, biochemical, cherry-pick, plate reader (AID 720512); settings: recombinant TcdB glycohydrolase activity

SMILES | AC50
COc1ccc(-c2ccc3c(c2)[C@H]2[C@H](CCN2C(=O)C2CC2)[C@@H](CO)N3C)cc1 | > 39 µM (inactive)
CCC(=O)N1CC[C@@H]2[C@@H](CO)N(C)c3ccc(-c4ccccc4)cc3[C@@H]21 | > 42 µM (inactive)
C[C@H](CO)N1C[C@H](C)[C@@H](CN(C)C(=O)Nc2ccc(C(F)(F)F)cc2)Oc2c(NS(=O)(=O)c3cccs3)cccc2C1=O | > 39 µM (inactive)
CN(C)CCNC(=O)c1cc2c(s1)-c1ccc(Cl)cc1SC2 | > 39 µM (inactive)
C[C@H](CO)N1C[C@H](C)[C@@H](CN(C)C(=O)Nc2ccc(C(F)(F)F)cc2)Oc2c(NS(=O)(=O)c3ccccc3)cccc2C1=O | > 39 µM (inactive)
CN1/C(=C/C=C/c2n(C)c3cc([N+](=O)[O-])c([N+](=O)[O-])cc3[n+]2C)C(C)(C)c2ccccc21 | > 39 µM (inactive)
CN1c2ccc(-c3ccccc3)cc2[C@@H]2[C@@H](CCN2C(=O)CN2CCOCC2)[C@@H]1CO | > 39 µM (inactive)
Oc1ccc(Nc2nc(Cl)nc(NCc3ccco3)n2)cc1 | 21.7 µM
CCCNC(=O)C[C@H]1CC[C@@H]2[C@@H](COc3ccc(NC(=O)c4ccc5c(c4)OCO5)cc3C(=O)N2C)O1 | > 39 µM (inactive)
CC1CCC/C(=C\c2ccc(O)cc2)C1=O (stereo unspecified) | 16.9 µM
O=S(=O)(Oc1ccccc1/C=N/n1cnnc1)c1ccccc1 | > 39 µM (inactive)
CC1=NCCc2c1[nH]c1cc(O)ccc21 | 9.94 µM
COCC(=O)N1CC[C@H]2[C@@H]1c1cc(-c3ccc(OC)cc3)ccc1N(C)[C@H]2CO | > 39 µM (inactive)

same assay, conditions: recombinant TcdB glycohydrolase activity, at 19.5 µM (top of the series)

SMILES | activity change, negative = inhibition
Cc1ccc(/C=C/c2onc(C)c2S(=O)(=O)N2CCC(C(=O)N3CCN(C)CC3)CC2)cc1 | inactive
O=C1COc2ccc(C(=O)COC(=O)CNS(=O)(=O)c3cccc(F)c3)cc2N1 | inactive
Oc1ccc(-c2nc3cnccn3c2Nc2ccc3c(c2)OCCO3)cc1 | inactive
O=C(Nc1ccc(O)cc1)/C(=C\c1cccs1)NC(=O)c1ccccc1 | inactive
Nc1nc(Cl)cc(NCCc2ccc(O)cc2)n1 | inactive
CCN1/C(=C2\OC(=S)N(C)C2=O)C=Cc2ccccc21 | inactive
CC(C)Cc1cc(C(=O)N2CCCC(CO)(Cc3ccc(F)cc3)C2)no1 (stereo unspecified) | inactive
O=[N+]([O-])c1cc(Br)ccc1NS(=O)(=O)c1ccccc1 | inactive
O=C(O)c1cccnc1SCc1ccccc1Cl | inactive
COc1ccc(/C=N/n2c(-c3cc(C)[nH]n3)n[nH]c2=S)cc1OC | inactive
COc1ccc(C(=O)NC(C(=O)NCc2ccccc2OC)C(C)C)cc1 (stereo unspecified) | inactive
COc1ccc(CC(=O)NNC(=S)NC(=O)c2cccnc2)cc1 | inactive
CCOC(=O)c1ccc(-n2c(CCC(=O)O)ccc2-c2ccc(F)cc2)cc1 | inactive
COC(=O)c1ccc(NC(=S)Nc2ccc(O)cc2)cc1 | inactive
Cn1c(SCC(=O)c2cc3ccccc3o2)nnc1-c1ccccc1 | inactive
O=C(Cc1ccccc1)NNC(=S)NC(=O)c1cccnc1 | inactive
CC(C)Cc1[nH]c(=O)c(C#N)c2c1CCC2 | inactive
COc1ccc(C2=NS(=O)(=O)N(C)C(C(=O)N(C)Cc3ccccc3)=C2)cc1OC | inactive
O=C(O)c1cc(S(=O)(=O)Nc2ccc3cn[nH]c3c2)ccc1Cl | inactive
O=C(OCn1nnc2ccccc2c1=O)c1cc2ccccc2o1 | inactive
CN(C(=O)COC(=O)CNC(=O)c1ccccc1Cl)c1ccccc1 | inactive
C/C(=N\NC(=O)c1ccccc1O)c1cccc(NC(=O)c2ccccc2)c1 | inactive
CN1CCN(C(CNC(=O)c2ccc(Br)o2)c2ccc(F)cc2)CC1 (stereo unspecified) | inactive

SMILES | activity change, negative = inhibition
CC(=O)c1cccc(-c2ccnc3c2CC(C(=O)NCc2ccccc2)O3)c1 (stereo unspecified) | inactive
Cc1ccc2ccc[n+](Cc3ccccc3)c2c1 | inactive
S=c1nc(-c2ccc(Cl)cc2)[nH][nH]1 | inactive
NS(=O)(=O)c1cccc(NC(=O)c2ccc(NS(=O)(=O)c3cccc([N+](=O)[O-])c3)cc2)c1 | inactive
Clc1ccc(-c2nc3ccc(Cl)cn3c2Cc2ccccc2)cc1 | inactive
CC1CCCN(C(=S)Nc2ccc(F)cc2)C1 (stereo unspecified) | inactive
Cn1c(=O)[nH]c(=O)c2c1[nH]c(=S)n2CCCc1ccccc1 | inactive
CC1C(=O)C(C)C(c2ccc([N+](=O)[O-])cc2)NC1c1ccc([N+](=O)[O-])cc1 (stereo unspecified) | inactive
O=C(CN1C(=O)NC2(CCCc3ccccc32)C1=O)NCc1cccs1 (stereo unspecified) | inactive
COC(=O)C[C@H]1CC[C@@H]2[C@@H](COc3ccc(NC(=O)c4ccc(OC)cc4)cc3C(=O)N2C)O1 | inactive
CCc1ccccc1NC(=O)CN1CCN(CC(=O)NCc2ccc(Cl)cc2)CC1 | inactive
O=c1[nH]c(/C=C\c2ccc(O)cc2)nc(O)c1[N+](=O)[O-] | inactive
O=C(c1ccc(N2CCOCC2)c([N+](=O)[O-])c1)N1CCN(c2ccccc2F)CC1 | inactive
O=C(C[C@H]1CC[C@@H]2[C@H](COC[C@@H](O)CN2C(=O)Nc2ccc(Cl)c(Cl)c2)O1)NCc1ccncc1 | inactive
O=C(COc1ncnc2ccccc12)NCCc1ccc(F)cc1 | inactive
O=C(NC(=S)NCc1ccccc1)c1cccnc1 | inactive
C/C(=N\NC(=O)CSc1nc2ccccc2c(=O)n1-c1ccccc1C)c1cccs1 | inactive
O=C(C[C@@H]1CC[C@@H]2[C@H](COC[C@@H](O)CN2C(=O)Nc2ccc(Cl)c(Cl)c2)O1)NCc1ccncc1 | inactive
O=c1ccc2cc(O)c(O)cc2o1 | inactive
CCCS(=O)(=O)NC(=O)C1(C)CCN(C(=O)c2ccco2)C1 (stereo unspecified) | inactive
COc1ccccc1N1CC(O)=C(c2nc3ccccc3s2)C1=N | inactive
Cc1ccc(NNC(=O)c2ccno2)cc1C | inactive
COc1ccc(Br)cc1C(=O)Nc1ccc(O)cc1 | inactive

SMILES | activity change, negative = inhibition
CC(C)OC(=O)C(=O)NNc1ccccc1 | inactive
O=C(CNS(=O)(=O)c1ccccc1)N/N=C/c1ccc(O)cc1 | inactive
COc1cc(/C=N/Nc2nc3ccccc3[nH]2)ccc1O | inactive
COc1cc([N+](=O)[O-])ccc1NC(=O)Oc1ccc(NC(C)=O)cc1 | inactive
COc1ccccc1CNC(=O)CNC(=O)N1CC(=O)Nc2ccccc21 | inactive
COCc1c(Br)c(C)nc(OCC(=O)N/N=C/c2ccc(C)o2)c1C#N | inactive
CCOc1ccccc1-n1c(C)nc2cc(C(=O)O)ccc21 | inactive
C[C@H](NC(=O)c1cc2c(cn1)[nH]c1ccccc12)C(=O)O | inactive
COCCN(C(=O)C(C)C)c1nnc(-c2ccc(C(C)(C)C)cc2)s1 | inactive
Oc1cc(O)cc(/C=C/c2ccc(O)c(O)c2)c1 | inactive
O=C(NC(=S)Nc1ccc(O)cc1)c1ccccc1Cl | inactive
CCOc1ccccc1/C=C/c1onc(C)c1S(=O)(=O)N1CCC(C(=O)NC(C)C)CC1 | inactive
O=C(Nc1ccc(N2CCOCC2)c(Cl)c1)c1ccc(F)cc1 | inactive
COc1cc(NC(=O)CSc2nc3[nH]ncc3c(=O)n2-c2ccccc2C)cc(OC)c1OC | inactive
CCOc1ccc(NC(=O)c2ccc(CC)s2)c([N+](=O)[O-])c1 | inactive
COc1cc2[nH]c(=S)n(Cc3cccs3)c(=O)c2cc1OC | inactive
Cn1c(-c2ccc(F)c(F)c2)cc2onc(-c3ccccc3)c2c1=O | inactive
ClCC(CNCc1ccccc1)c1ccccc1 (stereo unspecified) | inactive
COc1ccc(C(=O)Nc2ccc3c(c2)C(=O)N(C)[C@@H]2CC[C@H](CC(=O)NCC4CC4)O[C@@H]2CO3)cc1 | inactive
O=c1onc(-c2ccccc2)n1Cc1ccc([N+](=O)[O-])cc1 | inactive
COc1cc(/C=N/NC(=O)c2c(C)nc3ccc(Cl)cn23)cc(OC)c1OC | inactive
Cc1cc(C)c(C)c(S(=O)(=O)N2CCCCC2C(=O)O)c1C (stereo unspecified) | inactive
